According to patent US7851471B2, “Compounds I” (AstraZeneca AB (PUBL), priority 2007, dated 2010):

What was measured:
[1] = test system: JEG-3 cells (choriocarcinoma cell line); experiment: Leptin assay in non-recombinant system: [3H]-thymidine incorporation / proliferation of JEG-3 cells; format: cell-based
Protocol: In JEG-3 cells (choriocarcinoma cell line) leptin is able to stimulate proliferation up to 3 fold (Biol. Reprod. (2007) 76: 203-10). […] The radioactivity incorporated by the cells is an index of their proliferative activity and is measured in counts per minute (CPM) with a liquid scintillation beta counter.
This finding can be applied to test whether a compound is able to either reproduce the effect of leptin on cell proliferation (leptin receptor agonist mimetic) (i.e., a given compound will cause an increase in incorporated [^3H]-Thymidine by the cells) or to inhibit the effect of leptin (antagonistic effect) by preventing the leptin-mediated increase in [H]-thymidine incorporation.

[2] = test system: JEG-3 cells (choriocarcinoma cell line); conditions: Biol. Reprod. (2007) 76: 203-10; cited from earlier work

In the case of “Leptin: a hormone synthesized in fat cells that is believed to act in the hypothalamus to reduce food intake and body weight”, the “concentration giving maximal effect on [3H]-thymidine incorporation” value ([1]; FIG. 5) is listed as 100 nM, the EC50 ([1]; FIG. 5, read-out: concentration-dependent increase in [3H]-thymidine incorporation, EC50) is listed as 2.1 nM and the stimulation of proliferation [2] is listed as “up to 3 fold”.
